The source of these data is US5395624A, “Depigmenting cosmetic and/or dermatological composition containing a di- or tri-caffeoylquinic acid, or a mixture thereof” (L'Oreal, priority 1992, dated 1995).

Series [1] has as its target fungal tyrosinase. Description: in vitro test of inhibition of tyrosinase activity. The format is biochemical. To be noted: L-tyrosine with L-dopa co-substrate, pH 6.5, 25° C., dopachrome at 475 nm, read-out: IC 50 (content leading to 50% inhibition of the tyrosinase). From the text: The di- and tri-caffeoylquinic acids corresponding to general formula (I) have been studied comparatively with caffeic acid in equivalent molar quantities in the in vitro inhibition test of tyrosinase activity.
In this test, visible spectrometry at 475 mn is used to monitor the quantity of dopachrome formed during the chain of reactions by which tyrosine is transformed into melanins. These reactions are catalyzed in vitro using fungal tyrosinase in the presence of a reducing co-substrate (e.g., a small quantity of L-dopa) in order to initiate the hydroxylation reaction of L-tyrosine into L-dopa, which is then catalytically oxidized into dopaquinone, and then into dopachrome which is, an intermediate product, prior to the non-enzymatic oxidation reactions leading to melanin formation.
Accordingly, the concentration of dopachrome formed over time is measured in the presence and absence of the inhibitor.
The inhibition effect is expressed by the lowering of the maximum quantity of dopachrome formed (value of the optical density at 475 nm read on the flat part of the curve) in relation to the quantity obtained in the absence of the inhibitor.
For each compound, the content in micromoles per liter leading to 50% inhibition of the tyrosinase (IC 50) is measured.
A--Phosphate buffer 0.1M pH=6.5 (composition for 200 ml of buffer: 68.5 ml of NaH2 PO4 0.2M+31.5 ml of Na2 HPO4 0.2M+100 ml of water)
B--Mother solution of L-tyrosine at 2×10^-3 M in A
C--Mother solution of L-dopa at 10^-4 M in A
D--Mother solution of fungal tyrosinase at 2,400 units/ml in A
E--Mother solution of the inhibitor at 10^-2 M in ethanol (solutions C and D must be prepared the same day).
homogenize and establish equilibrium at 25° C.
add 0.05 ml of D to the test trough
mix rapidly and observe the kinetics by measuring absorption at 475 nm as a function of time.

For series [2] the following is noted: background statement; cited from earlier work.
The test system of series [3] is melanocytes. To be noted: background statement; cited from earlier work.

As for `O=C(C=Cc1ccc(O)c(O)c1)OC1CC(OC(=O)C=Cc2ccc(O)c(O)c2)(C(=O)O)CC(O)C1O` (centres unmarked) [1,3-di-caffeoylquinic acid], the IC50 in series [1] came out at 47 µM. For the molecule `O=C(C=Cc1ccc(O)c(O)c1)OC1CC(O)(C(=O)O)CC(OC(=O)C=Cc2ccc(O)c(O)c2)C1OC(=O)C=Cc1ccc(O)c(O)c1` (centres unmarked) [3,4,5-tri-caffeoylquinic acid], the IC50 in series [1] came out at 29 µM. With `O=C(C=Cc1ccc(O)c(O)c1)OC1CC(O)(C(=O)O)CC(O)C1OC(=O)C=Cc1ccc(O)c(O)c1` (centres unmarked) [3,4-di-caffeoylquinic acid], the IC50 in series [1] was 85 µM.

With `O=C(C=Cc1ccc(O)c(O)c1)OC1CC(O)(C(=O)O)CC(OC(=O)C=Cc2ccc(O)c(O)c2)C1O` (centres unmarked) [3,5-di-caffeoylquinic acid], the IC50 in series [1] came out at 52 µM. Still for that read-out and setting: then `O=C(C=Cc1ccc(O)c(O)c1)OC1CC(O)(C(=O)O)CC(O)C1OC(=O)C=Cc1ccc(O)c(O)c1` (centres unmarked) [4,5-di-caffeoylquinic acid], with 45 µM; and `O=C(O)/C=C/c1ccc(O)c(O)c1` [Caffeic acid, reference compound], with 530 µM. On to `Oc1ccc(O)cc1` [hydroquinone], for which, in series [2], the irritation result was “especially irritating”. For the same molecule, the cytotoxicity for melanocytes result in series [3] is on record as “cytotoxic for melanocytes”.
